Measured values reported in paper PMC8521653 (ACS Medicinal Chemistry Letters, 2021).
Marks after values point to notes of the source that are not given here.

Legend:
[1] = system: PREP-catalyzed α-synuclein dimerization in N2A cells; experiment: αSyn dimerization, protein fragment complementation assay (PCA) in N2A cells; type: cell-based; settings: 10 μM, PCA, Figure S1A, % decrease
Experimental: The effect of the compounds on autophagy was determined by using GFP-LC3B-RFP expressing HEK-293 cells.[15],[34] The effect on αSyn dimerization was evaluated with a protein fragment complementation assay (PCA) by using N2A cells.[10],[15],[16] The increase in autophagic flux was measured as a decrease in GFP signal due to increased degradation of GFP-LC3B, and the decrease in αSyn dimerization was measured as a decrease in luminescence, both compared with DMSO (Table 1). […] Rapamycin and starvation are known to induce autophagy, lowering the fluorescence to 65–70% in our assays, and were therefore used as reference compounds for this. Test compounds were assayed at 10 μM concentration with 0.1% DMSO. A graphical representation of the mean values (± SEM) can be seen in the Supporting Information (Figure S1).
Measuring biological activity […]
α-Synuclein Dimerization. αSyn dimerization was assessed by using PCA, which was carried out as described previously in Kilpeläinen et al.1 In short, N2A cells were seeded on poly-L-lysine-coated 96-well plates (Isoplate™ white wall, PerkinElmer Life Sciences) at the density of 13 000 cells/well. 24 h post-plating, reporter plasmids were transfected with 100 ng of total plasmid DNA per well. N2A cells were transfected with 25 ng of both αSyn-Gluc1 and αSyn-Gluc2 and 50 ng mock-plasmid or non-tagged human PREP expression plasmid 50 ng/well. Lipofectamine 3000 (Thermo Fischer Scientific) was used as the transfection reagent. 100 µL normal growth medium was added to all wells at 24 h post-transfection. 48 hours post-transfection medium was changed to phenol red free DMEM without serum containing the tested compounds at 10 µM concentration, with 0,1% DMSO as vehicle control. Proteasome inhibitors lactacystin (AG Scientific) at 10 µM and MG-132 (Enzo Life Sciences) at 10 µM served as a positive control. The PCA signal was assessed by injecting 25 µL of native coelenterazine (Nanolight Technology) in phenol red free DMEM per well (final concentration 6 µM). The emitted luminescence was read using Varioskan LUX multimode microplate reader (Thermo Scientific). For each experimental condition, 4 replicate wells were used in each experiment, and at least 3 separate experiments for each treatment except for 15c which had 2 separate experiments. […]

[2] = system: PREP-catalyzed α-synuclein dimerization in N2A cells; settings: luminescence signal percentage of DMSO control with SEM, ref Kilpeläinen et al.[16]; cited from earlier work
[3] = system: GFP-LC3B-RFP expressing HEK-293 cells; experiment: Autophagic flux, GFP signal in GFP-LC3B-RFP expressing HEK-293 cells; type: cell-based; settings: for effect on autophagy (in words) / activity at 10 µM: 10 μM; for activity at 10 µM: Homo sapiens, HEK293, GFP signal percentage of DMSO control with SEM, HEK-293 cells, read-out: autophagy at 10 μM (%)
[4] = molecular target: T1, purified recombinant porcine PREP (Sus scrofa, UniProt P23687); set-up: method as in Kilpeläinen et al.[16]; settings: 95% CI in brackets, ref Kilpeläinen et al.[16]; cited from earlier work
T1 construct: made in house; host or cells: E. coli

[5] = system: GFP-LC3B-RFP expressing HEK-293 cells; set-up: method as in Kilpeläinen et al.[15]; settings: GFP signal percentage of DMSO control with SEM, ref Kilpeläinen et al.[15]; cited from earlier work

T1 sequence (P23687 whole entry): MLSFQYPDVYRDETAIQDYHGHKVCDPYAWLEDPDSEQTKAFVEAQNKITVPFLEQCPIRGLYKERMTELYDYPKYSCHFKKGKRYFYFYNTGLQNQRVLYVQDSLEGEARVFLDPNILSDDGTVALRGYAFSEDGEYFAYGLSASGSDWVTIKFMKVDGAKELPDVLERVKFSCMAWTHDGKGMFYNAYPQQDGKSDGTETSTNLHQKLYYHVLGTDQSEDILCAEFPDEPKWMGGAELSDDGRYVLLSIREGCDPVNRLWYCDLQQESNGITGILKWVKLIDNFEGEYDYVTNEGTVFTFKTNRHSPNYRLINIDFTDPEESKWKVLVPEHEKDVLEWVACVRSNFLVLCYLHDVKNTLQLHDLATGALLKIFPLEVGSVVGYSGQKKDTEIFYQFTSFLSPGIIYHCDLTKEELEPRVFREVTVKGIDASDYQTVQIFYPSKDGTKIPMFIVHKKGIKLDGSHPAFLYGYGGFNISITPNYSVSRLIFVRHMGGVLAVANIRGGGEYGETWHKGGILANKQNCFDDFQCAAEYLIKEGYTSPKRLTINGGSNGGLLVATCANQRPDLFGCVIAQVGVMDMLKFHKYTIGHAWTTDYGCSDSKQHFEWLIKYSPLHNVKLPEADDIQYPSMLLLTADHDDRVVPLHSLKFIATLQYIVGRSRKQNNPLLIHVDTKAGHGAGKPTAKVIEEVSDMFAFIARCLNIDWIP

SMILES	decrease of aSyn dimerization compared to DMSO control [1]	α-synuclein dimerization at 10 μM (%) [2]	effect on autophagy (in words) [3]	activity at 10 µM ([3]; 24 h)	decrease in autophagic flux assay GFP signal compared to DMSO control ([3]; 10 µM, 24 h, Figure S1B, % decrease)	IC50 [4]	autophagy at 10 μM (%) [5]
O=C(CCCc1ccccc1)N1CCC[C@H]1C(=O)N1CCC[C@H]1c1nnn[nH]1 [Compound 1a]	23%	82 ^e (6.8) %	no significant activity	92%	–	–	–
C[C@H](NC(=O)CCCc1ccccc1)C(=O)N1CCC[C@H]1c1nnn[nH]1 [Compound 1b]	25%	75 ^e (4.9) %	effective at inducing autophagy	71%	29%	–	–
O=C(CCCc1ccccc1)NCC(=O)N1CCC[C@H]1c1nnn[nH]1 [Compound 1e]	–	77 ^e (6.2) %	no significant activity	90%	–	210000 nM	–
N#C[C@@H]1CCCN1C(=O)[C@@H]1CCCN1C(=O)CCCc1ccccc1 [KYP-2047]	–	–	–	–	–	–	89 ^d (3.4) %
